We go through three molecules from ChEMBL document CHEMBL5678810.

For assay [1], the target named is Serine/threonine-protein kinase TAO2 (Homo sapiens) (UniProt Q9UL54). As to the kind of experiment: Inhibition of TAO2 Lys2 labeling site in human PC-3 cell lysate at 10 uM by KiNativ profiling analysis relative to control. Format: subcellular.
Assay [2] addresses Protein-tyrosine kinase 2-beta (Homo sapiens) (UniProt Q14289). Description: Inhibition of T7 bacteriophage fused human PYK2 at 10 uM by KINOMEscan analysis relative to control.
Assay [3] relates to Epidermal growth factor receptor (Homo sapiens), P00533 [L858R]. As to the kind of experiment: Inhibition of T7 bacteriophage fused human EGFR L858R mutant at 10 uM by KINOMEscan analysis relative to control; values are per cent of control.
Assay [4] addresses Serine/threonine-protein kinase BRSK2 (Homo sapiens) (UniProt Q8IWQ3). Description: Inhibition of T7 bacteriophage fused human BRSK2 at 10 uM by KINOMEscan analysis relative to control.
Assay [5] deals with Mitogen-activated protein kinase kinase kinase 3 (Homo sapiens) (UniProt Q99759). As to the kind of experiment: Inhibition of T7 bacteriophage fused human MAP3K3 at 10 uM by KINOMEscan analysis relative to control.
The target of assay [6] is Dual specificity tyrosine-phosphorylation-regulated kinase 1A (Homo sapiens) (UniProt Q13627). Description: Inhibition of T7 bacteriophage fused human DYRK1A at 10 uM by KINOMEscan analysis relative to control; values are per cent of control.
Assay [7] relates to Receptor-type tyrosine-protein kinase FLT3 (Homo sapiens), P36888 [D835H]. Description: Inhibition of T7 bacteriophage fused human FLT3 D835H mutant at 10 uM by KINOMEscan analysis relative to control.
For assay [8], the target named is Cyclin-dependent kinase 15 (Homo sapiens) (UniProt Q96Q40). As to the kind of experiment: Inhibition of T7 bacteriophage fused human PFTAIRE2 at 10 uM by KINOMEscan analysis relative to control.
In assay [9] the target is Serine/threonine-protein kinase PAK 6 (Homo sapiens) (UniProt Q9NQU5). Description: Inhibition of T7 bacteriophage fused human PAK6 at 10 uM by KINOMEscan analysis relative to control.
Assay [10] has as its target Ephrin type-A receptor 4 (Homo sapiens) (UniProt P54764). As to the kind of experiment: Inhibition of T7 bacteriophage fused human EPHA4 at 10 uM by KINOMEscan analysis relative to control.
Assay [11] has as its target Dual specificity tyrosine-phosphorylation-regulated kinase 1B (Homo sapiens) (UniProt Q9Y463). As to the kind of experiment: Inhibition of T7 bacteriophage fused human DYRK1B at 10 uM by KINOMEscan analysis relative to control; values are per cent of control.
The target in assay [12] is Receptor-type tyrosine-protein kinase FLT3 (Homo sapiens) (UniProt P36888). Description: Inhibition of T7 bacteriophage fused human FLT3 at 10 uM by KINOMEscan analysis relative to control.
In assay [13] the target is Dual specificity protein kinase CLK4 (Homo sapiens) (UniProt Q9HAZ1). Description: Inhibition of T7 bacteriophage fused human CLK4 at 10 uM by KINOMEscan analysis relative to control.
Assay [14] concerns the target Glycogen synthase kinase-3 beta (Homo sapiens) (UniProt P49841). Description: Inhibition of T7 bacteriophage fused human GSK3B at 10 uM by KINOMEscan analysis relative to control; values are per cent of control.
For assay [15], the target named is Uncharacterized serine/threonine-protein kinase SBK3 (Homo sapiens) (UniProt P0C264). Description: Inhibition of T7 bacteriophage fused human SgK110 at 10 uM by KINOMEscan analysis relative to control.
In assay [16] the target is Fibroblast growth factor receptor 1 (Homo sapiens) (UniProt P11362). As to the kind of experiment: Inhibition of T7 bacteriophage fused human FGFR1 at 10 uM by KINOMEscan analysis relative to control; values are per cent of control.
In assay [17] the target is Maternal embryonic leucine zipper kinase (Homo sapiens) (UniProt Q14680). As to the kind of experiment: Inhibition of T7 bacteriophage fused human MELK at 10 uM by KINOMEscan analysis relative to control.
Assay [18] has as its target Mitogen-activated protein kinase 14 (Homo sapiens) (UniProt Q16539). Description: Inhibition of T7 bacteriophage fused human p38-alpha at 10 uM by KINOMEscan analysis relative to control; values are per cent of control.
The subject of assay [19] is Receptor-type tyrosine-protein kinase FLT3 (Homo sapiens), P36888 [K663Q]. Description: Inhibition of T7 bacteriophage fused human FLT3 K663Q mutant at 10 uM by KINOMEscan analysis relative to control.
The target in assay [20] is Serine/threonine-protein kinase PknB (Mycobacterium tuberculosis) (UniProt P9WI81). As to the kind of experiment: Inhibition of T7 bacteriophage fused […] tuberculosis PKNB at 10 uM by KINOMEscan analysis relative to control.
Assay [21] has as its target Cyclin-dependent kinase 8 (Homo sapiens) (UniProt P49336). As to the kind of experiment: Inhibition of T7 bacteriophage fused human CDK8 at 10 uM by KINOMEscan analysis relative to control.
In assay [22] the target is Phosphatidylinositol 4,5-bisphosphate 3-kinase catalytic subunit delta isoform (Homo sapiens) (UniProt O00329). Description: Inhibition of T7 bacteriophage fused human PIK3CD at 10 uM by KINOMEscan analysis relative to control.
For assay [23], the target named is Leucine-rich repeat serine/threonine-protein kinase 2 (Homo sapiens) (UniProt Q5S007). Description: Inhibition of T7 bacteriophage fused human LRRK2 at 10 uM by KINOMEscan analysis relative to control; values are per cent of control.
Assay [24] has as its target Serine/threonine-protein kinase 16 (Homo sapiens) (UniProt O75716). As to the kind of experiment: Inhibition of T7 bacteriophage fused human STK16 at 10 uM by KINOMEscan analysis relative to control.
Assay [25] has as its target Serine/threonine-protein kinase 36 (Homo sapiens) (UniProt Q9NRP7). As to the kind of experiment: Inhibition of T7 bacteriophage fused human STK36 at 10 uM by KINOMEscan analysis relative to control.
Assay [26] deals with Tyrosine-protein kinase ABL1 (Homo sapiens), P00519 [F317L]. As to the kind of experiment: Inhibition of T7 bacteriophage fused human nonphosphorylated ABL1 F317L mutant at 10 uM by KINOMEscan analysis relative to control.
The target in assay [27] is Cyclin-dependent kinase-like 2 (Homo sapiens) (UniProt Q92772). Description: Inhibition of T7 bacteriophage fused human CDKL2 at 10 uM by KINOMEscan analysis relative to control.
Assay [28] has as its target Dual specificity protein kinase CLK2 (Homo sapiens) (UniProt P49760). As to the kind of experiment: Inhibition of T7 bacteriophage fused human CLK2 at 10 uM by KINOMEscan analysis relative to control; values are per cent of control.
In assay [29] the target is Leucine-rich repeat serine/threonine-protein kinase 2 (Homo sapiens) (UniProt Q5S007). As to the kind of experiment: Inhibition of LRRK2 phosphorylation at Ser935 residue in EBV immortalized human derived lymphoblastoid cells at 0.01 to 3 uM incubated for 90 mins by immunoblot analysis. The class given is cell-based. The conditions noted are these: Lymphoblastoid cell, dose 0.01-3 µM.

Active and inactive are the calls of the source. The calls are words filed in the database; no cut-off is given here.

Sequence of Leucine-rich repeat serine/threonine-protein kinase 2 (Homo sapiens) (Q5S007 whole entry, the tested form may be a part): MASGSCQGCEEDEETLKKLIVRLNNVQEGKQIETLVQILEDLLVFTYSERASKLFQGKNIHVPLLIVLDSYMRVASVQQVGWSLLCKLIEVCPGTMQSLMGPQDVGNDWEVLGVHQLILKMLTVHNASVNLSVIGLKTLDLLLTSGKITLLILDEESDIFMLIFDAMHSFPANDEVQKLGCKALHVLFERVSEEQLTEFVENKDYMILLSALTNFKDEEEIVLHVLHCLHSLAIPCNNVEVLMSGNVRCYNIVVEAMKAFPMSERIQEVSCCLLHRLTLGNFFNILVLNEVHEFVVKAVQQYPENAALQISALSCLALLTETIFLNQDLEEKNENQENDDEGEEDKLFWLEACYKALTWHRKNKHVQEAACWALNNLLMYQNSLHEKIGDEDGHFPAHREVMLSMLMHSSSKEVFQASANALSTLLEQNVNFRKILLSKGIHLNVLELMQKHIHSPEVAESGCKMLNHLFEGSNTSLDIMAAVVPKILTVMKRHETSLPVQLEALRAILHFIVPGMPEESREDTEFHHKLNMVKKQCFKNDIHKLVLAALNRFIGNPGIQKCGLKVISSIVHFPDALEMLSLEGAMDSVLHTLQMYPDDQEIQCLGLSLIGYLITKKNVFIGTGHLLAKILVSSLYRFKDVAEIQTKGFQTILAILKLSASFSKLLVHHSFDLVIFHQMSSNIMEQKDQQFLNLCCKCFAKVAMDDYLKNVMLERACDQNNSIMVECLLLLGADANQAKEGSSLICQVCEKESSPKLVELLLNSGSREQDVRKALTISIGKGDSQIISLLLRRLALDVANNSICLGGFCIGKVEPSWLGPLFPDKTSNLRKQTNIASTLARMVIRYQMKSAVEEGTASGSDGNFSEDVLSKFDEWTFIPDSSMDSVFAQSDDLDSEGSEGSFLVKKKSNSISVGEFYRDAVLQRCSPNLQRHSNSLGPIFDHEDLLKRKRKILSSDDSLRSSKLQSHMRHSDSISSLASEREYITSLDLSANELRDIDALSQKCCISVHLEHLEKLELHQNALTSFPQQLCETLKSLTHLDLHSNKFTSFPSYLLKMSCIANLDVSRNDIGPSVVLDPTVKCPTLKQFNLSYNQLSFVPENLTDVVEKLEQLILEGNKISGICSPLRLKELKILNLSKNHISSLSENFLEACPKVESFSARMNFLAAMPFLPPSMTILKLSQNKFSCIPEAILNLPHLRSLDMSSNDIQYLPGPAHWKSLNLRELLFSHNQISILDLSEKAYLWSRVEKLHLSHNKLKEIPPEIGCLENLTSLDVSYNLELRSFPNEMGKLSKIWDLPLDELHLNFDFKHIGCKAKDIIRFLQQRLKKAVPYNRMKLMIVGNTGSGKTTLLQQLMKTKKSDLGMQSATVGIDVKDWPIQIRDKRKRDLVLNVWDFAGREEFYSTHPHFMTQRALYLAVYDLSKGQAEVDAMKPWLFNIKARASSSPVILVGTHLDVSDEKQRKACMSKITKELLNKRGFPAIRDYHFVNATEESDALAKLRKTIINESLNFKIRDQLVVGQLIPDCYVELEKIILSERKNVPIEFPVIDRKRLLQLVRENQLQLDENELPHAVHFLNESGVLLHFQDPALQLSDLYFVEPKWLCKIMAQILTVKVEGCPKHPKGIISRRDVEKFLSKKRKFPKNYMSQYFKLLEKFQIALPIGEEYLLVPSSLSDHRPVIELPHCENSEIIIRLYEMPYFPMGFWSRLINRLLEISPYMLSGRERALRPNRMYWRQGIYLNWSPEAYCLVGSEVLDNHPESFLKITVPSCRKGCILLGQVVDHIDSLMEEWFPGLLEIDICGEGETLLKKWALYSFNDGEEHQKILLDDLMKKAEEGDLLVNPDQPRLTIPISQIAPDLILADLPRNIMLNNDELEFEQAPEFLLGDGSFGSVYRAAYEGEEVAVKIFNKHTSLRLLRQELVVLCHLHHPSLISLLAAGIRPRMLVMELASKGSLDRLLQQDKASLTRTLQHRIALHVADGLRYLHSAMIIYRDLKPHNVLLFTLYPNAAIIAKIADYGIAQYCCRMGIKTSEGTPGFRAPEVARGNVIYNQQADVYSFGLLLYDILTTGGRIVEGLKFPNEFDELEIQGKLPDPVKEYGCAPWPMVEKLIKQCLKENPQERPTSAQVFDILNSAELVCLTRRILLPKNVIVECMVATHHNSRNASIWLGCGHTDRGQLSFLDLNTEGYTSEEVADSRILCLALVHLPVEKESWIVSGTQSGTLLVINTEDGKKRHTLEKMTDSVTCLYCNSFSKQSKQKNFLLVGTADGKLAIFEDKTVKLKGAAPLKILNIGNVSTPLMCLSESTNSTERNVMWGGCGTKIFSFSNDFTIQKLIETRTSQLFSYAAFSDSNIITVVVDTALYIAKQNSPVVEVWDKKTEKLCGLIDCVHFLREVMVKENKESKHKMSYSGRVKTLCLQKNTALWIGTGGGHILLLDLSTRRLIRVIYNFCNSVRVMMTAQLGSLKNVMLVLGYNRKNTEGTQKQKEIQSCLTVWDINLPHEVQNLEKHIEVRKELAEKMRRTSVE
Sequence of Phosphatidylinositol 4,5-bisphosphate 3-kinase catalytic subunit delta isoform (Homo sapiens) (O00329 whole entry, the tested form may be a part, canonical isoform): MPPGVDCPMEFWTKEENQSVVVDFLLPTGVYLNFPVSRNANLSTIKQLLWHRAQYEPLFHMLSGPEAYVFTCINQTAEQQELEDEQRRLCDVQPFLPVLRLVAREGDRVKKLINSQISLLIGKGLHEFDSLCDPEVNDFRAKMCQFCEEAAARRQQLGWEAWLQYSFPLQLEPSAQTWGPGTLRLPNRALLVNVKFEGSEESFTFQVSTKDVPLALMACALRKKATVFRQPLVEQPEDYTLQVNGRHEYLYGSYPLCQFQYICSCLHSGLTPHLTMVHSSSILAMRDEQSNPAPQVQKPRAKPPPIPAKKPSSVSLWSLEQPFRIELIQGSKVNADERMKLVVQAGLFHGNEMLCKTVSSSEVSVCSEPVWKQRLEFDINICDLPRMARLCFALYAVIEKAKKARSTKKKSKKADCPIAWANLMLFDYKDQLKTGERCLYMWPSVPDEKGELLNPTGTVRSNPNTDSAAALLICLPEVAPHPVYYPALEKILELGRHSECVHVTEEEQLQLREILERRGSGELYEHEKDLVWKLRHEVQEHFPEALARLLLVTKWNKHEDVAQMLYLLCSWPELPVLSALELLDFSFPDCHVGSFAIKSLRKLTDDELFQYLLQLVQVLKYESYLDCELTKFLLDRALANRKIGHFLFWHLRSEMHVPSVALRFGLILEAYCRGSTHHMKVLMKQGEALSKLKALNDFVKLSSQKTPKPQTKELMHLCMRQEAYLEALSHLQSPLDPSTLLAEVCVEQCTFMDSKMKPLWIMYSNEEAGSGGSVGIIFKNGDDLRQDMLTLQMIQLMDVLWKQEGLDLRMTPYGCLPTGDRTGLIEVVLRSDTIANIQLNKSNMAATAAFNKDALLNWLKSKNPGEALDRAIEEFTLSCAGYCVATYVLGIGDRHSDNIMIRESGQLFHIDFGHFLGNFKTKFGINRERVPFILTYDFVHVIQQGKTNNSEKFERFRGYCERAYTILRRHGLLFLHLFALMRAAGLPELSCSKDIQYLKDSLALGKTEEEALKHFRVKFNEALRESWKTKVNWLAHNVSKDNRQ
Sequence of Mitogen-activated protein kinase 14 (Homo sapiens) (Q16539 whole entry, the tested form may be a part): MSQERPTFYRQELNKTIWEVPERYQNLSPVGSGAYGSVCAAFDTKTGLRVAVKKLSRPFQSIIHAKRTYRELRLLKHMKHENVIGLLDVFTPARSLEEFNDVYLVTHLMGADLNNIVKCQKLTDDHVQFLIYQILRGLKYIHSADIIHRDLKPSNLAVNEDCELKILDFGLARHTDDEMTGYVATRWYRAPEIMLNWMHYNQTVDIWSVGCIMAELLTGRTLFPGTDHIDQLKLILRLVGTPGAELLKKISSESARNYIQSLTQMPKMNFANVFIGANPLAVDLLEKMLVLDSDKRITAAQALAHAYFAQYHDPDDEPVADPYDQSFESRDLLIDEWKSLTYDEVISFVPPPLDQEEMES
Sequence of Glycogen synthase kinase-3 beta (Homo sapiens) (P49841 whole entry, looked up, the tested form may be a part): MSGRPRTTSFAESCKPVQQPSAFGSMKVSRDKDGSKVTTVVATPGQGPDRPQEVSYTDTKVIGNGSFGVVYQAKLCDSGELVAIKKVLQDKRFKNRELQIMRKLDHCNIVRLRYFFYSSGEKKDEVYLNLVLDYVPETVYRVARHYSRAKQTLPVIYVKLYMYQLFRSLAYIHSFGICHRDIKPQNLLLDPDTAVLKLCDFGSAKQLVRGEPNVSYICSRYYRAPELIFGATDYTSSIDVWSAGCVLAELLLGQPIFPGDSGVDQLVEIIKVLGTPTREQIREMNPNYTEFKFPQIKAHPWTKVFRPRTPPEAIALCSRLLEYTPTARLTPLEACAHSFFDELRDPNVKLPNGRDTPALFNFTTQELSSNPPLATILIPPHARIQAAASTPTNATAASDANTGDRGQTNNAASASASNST
Sequence of Cyclin-dependent kinase-like 2 (Homo sapiens) (Q92772 whole entry, the tested form may be a part): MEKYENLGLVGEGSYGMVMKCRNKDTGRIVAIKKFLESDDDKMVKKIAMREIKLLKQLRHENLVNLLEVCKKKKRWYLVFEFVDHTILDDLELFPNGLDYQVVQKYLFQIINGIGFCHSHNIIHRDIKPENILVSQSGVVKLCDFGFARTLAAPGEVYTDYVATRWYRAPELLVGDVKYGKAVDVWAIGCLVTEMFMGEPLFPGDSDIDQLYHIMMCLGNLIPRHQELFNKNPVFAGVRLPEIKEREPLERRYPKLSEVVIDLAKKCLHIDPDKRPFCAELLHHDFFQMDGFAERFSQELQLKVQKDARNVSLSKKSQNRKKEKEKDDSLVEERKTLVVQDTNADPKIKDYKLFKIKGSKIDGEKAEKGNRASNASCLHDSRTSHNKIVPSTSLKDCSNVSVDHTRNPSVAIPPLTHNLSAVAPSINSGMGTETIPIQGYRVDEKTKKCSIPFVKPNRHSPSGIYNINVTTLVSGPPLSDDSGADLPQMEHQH

As to `COc1cc(C(=O)N2CCC(N3CCN(C)CC3)CC2)ccc1Nc1ncc2c(n1)N(C1CCCC1)c1ccccc1C(=O)N2C`, the inhibition in assay [1] is 0.3%.
Regarding `COc1cc(N2CCC(N3CCN(C)CC3)CC2)ccc1Nc1ncc2c(n1)N(C)c1ccccc1C(=O)N2C`, the inhibition in assay [2] was 78%; in assay [4], 64%; in assay [5] it was 97%; in assay [7], 100%; in [8], 100%; in assay [9], 98%. For the same molecule, the inhibition worked out at 89% in [10]; 100% in [12]; 54% in assay [13]; 62% in assay [15]; 100% in [17]; 97% in [19]. Also, the inhibition in assay [20] is 100%; in [21], 100%; in assay [22], 62%; in assay [24], 62%; in assay [25] it was 97%; in assay [26], 14%. Also, the inhibition in assay [27] was 100%. The residual activity turned out to be 79% in assay [3]; 99% in assay [6]; 94% in assay [11]; 88% in assay [14]; 86% in assay [16]; 87% in assay [18]. The residual activity in assay [23] is 0%; in [28], 72%.
Regarding `CCOc1cc(C(=O)N2CCC(N3CCN(C)CC3)CC2)ccc1Nc1ncc2c(n1)N(C1CCCC1)c1ccccc1C(=O)N2C`, the inhibition result in assay [29] is “inactive”.
